Reference: ChEMBL document CHEMBL3399947, “Structure activity relationship of selective GABA uptake inhibitors” (Bioorg Med Chem, 2015)

Tests used:
Assay type in all cases: cell-based
GABA transporter 2 = biological target: T1, GABA transporter 2 (Mus musculus, UniProt P31651); assay: Inhibition of mouse mGAT2 expressed in HEK293 cells assessed as inhibition of [3H]GABA uptake after 3 mins incubation by TopCount microplate scintillation counting analysis; conditions: read-out: IC50
T1 sequence (P31651 whole entry): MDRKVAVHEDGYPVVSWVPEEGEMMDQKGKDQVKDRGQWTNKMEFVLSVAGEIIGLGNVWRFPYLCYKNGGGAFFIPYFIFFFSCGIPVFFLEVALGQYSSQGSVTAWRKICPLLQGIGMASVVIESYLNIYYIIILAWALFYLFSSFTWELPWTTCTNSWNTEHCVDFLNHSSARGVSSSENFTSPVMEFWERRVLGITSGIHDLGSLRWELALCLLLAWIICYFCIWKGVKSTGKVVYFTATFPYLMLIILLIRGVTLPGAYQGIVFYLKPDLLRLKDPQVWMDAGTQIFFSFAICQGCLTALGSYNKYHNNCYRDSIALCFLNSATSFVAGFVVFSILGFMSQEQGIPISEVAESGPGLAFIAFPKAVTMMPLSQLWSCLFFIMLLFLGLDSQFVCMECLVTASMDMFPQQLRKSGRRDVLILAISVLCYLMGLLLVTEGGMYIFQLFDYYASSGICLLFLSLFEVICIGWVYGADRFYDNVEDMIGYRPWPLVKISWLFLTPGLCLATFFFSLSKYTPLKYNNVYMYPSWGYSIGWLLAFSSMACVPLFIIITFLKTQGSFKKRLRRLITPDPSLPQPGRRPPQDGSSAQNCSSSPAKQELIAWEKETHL

GABA transporter 3 = biological target: T2, GABA transporter 3 (Mus musculus, UniProt P31649); assay: Inhibition of mouse mGAT3 expressed in HEK293 cells assessed as inhibition of [3H]GABA uptake after 3 mins incubation by TopCount microplate scintillation counting analysis
T2 sequence (P31649 whole entry): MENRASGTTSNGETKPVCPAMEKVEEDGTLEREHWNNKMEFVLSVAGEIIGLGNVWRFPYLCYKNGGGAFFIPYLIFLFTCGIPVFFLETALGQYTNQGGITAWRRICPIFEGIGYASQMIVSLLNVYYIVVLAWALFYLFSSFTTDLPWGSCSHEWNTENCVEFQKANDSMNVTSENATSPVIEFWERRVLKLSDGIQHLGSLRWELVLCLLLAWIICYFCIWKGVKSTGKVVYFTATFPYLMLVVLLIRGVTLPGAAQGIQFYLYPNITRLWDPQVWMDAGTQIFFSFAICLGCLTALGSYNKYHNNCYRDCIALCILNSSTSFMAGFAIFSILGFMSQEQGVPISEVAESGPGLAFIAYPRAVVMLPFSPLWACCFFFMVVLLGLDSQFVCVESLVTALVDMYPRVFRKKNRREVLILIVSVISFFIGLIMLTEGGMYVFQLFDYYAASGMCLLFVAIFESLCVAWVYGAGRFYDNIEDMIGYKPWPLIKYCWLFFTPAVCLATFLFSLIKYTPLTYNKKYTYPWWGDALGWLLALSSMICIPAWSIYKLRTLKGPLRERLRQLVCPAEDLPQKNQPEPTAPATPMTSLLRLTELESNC

GABA transporter 4 = biological target: T3, GABA transporter 4 (Mus musculus, UniProt P31650); assay: Inhibition of mouse mGAT4 expressed in HEK293 cells assessed as inhibition of [3H]GABA uptake after 3 mins incubation by TopCount microplate scintillation counting analysis; conditions: read-out: IC50
T3 sequence (P31650 whole entry): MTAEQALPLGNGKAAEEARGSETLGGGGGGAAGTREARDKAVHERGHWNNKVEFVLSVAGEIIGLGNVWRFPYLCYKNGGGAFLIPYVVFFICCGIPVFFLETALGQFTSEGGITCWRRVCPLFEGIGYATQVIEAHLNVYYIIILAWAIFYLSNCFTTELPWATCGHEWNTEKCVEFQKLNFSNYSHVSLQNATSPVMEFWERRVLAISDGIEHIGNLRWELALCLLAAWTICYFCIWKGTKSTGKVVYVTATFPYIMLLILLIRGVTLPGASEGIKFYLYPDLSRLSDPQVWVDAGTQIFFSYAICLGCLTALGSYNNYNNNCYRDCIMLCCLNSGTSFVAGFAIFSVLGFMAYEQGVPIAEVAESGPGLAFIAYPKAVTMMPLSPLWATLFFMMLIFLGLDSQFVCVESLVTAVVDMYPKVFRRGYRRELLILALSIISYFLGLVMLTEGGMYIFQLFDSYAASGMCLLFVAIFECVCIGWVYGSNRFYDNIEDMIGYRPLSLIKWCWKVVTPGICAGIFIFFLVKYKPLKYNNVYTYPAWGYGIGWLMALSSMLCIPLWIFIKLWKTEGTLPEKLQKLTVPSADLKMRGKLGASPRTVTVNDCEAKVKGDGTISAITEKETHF

[1] = biological target: Sodium- and chloride-dependent GABA transporter 1 (Mus musculus, UniProt P31648); assay: Inhibition of mouse mGAT1 expressed in HEK293 cells assessed as inhibition of [3H]GABA uptake after 3 mins incubation by TopCount microplate scintillation counting analysis; conditions: read-out: IC50

SMILES | IC50 (GABA transporter 2) [µM] | IC50 (GABA transporter 3; read-out: IC50) [µM] | IC50 (GABA transporter 4) [µM] | IC50 [1] [µM] | IC50 (GABA transporter 3; read-out: pIC50 (converted)) [µM]
COc1ccccc1C1(O)CCN(CCCn2c3ccccc3c3ccccc32)CC1 | 1.4 | 41 |  |  | 
CCOC(=O)[C@H]1CCCC[C@H]1N(C)CCC=C(c1sccc1C)c1sccc1C | 201 | 654 | 1220 | 604 | 646
CN(CCC=C1c2ccccc2CCc2ccccc21)[C@@H]1CCCC[C@@H]1CO | 50 | 153 | 171 | 286 | 
CN(CCOC(c1ccc(C(F)(F)F)cc1)c1ccc(C(F)(F)F)cc1)[C@H]1CCCC[C@H]1CO | 133 | 328 | 181 | 359 | 
CN(CCOC(c1ccc(C(F)(F)F)cc1)c1ccc(C(F)(F)F)cc1)[C@@H]1CCCC[C@@H]1CO | 63.3 | 119 | 866 | 223 | 
CCOC(=O)[C@@H]1CCCC[C@@H]1N(C)CCC=C(c1sccc1C)c1sccc1C | 217 | 602 | 835 | 801 | 
CCOC(=O)[C@H]1CCCC[C@H]1N(C)CCON=C(c1ccccc1)c1ccccc1 | 114 | 1050 | 836 | 1240 | 
CCOC(=O)[C@@H]1CCCC[C@@H]1N(C)CCC=C1c2ccccc2CCc2ccccc21 | 375 | 1340 | 1670 | 1370 | 
CCOC(=O)[C@H]1CCCC[C@H]1N(C)CCC=C1c2ccccc2CCc2ccccc21 | 444 | 1400 | > 1000 | 1190 | 1740
CCOC(=O)[C@@H]1CCCC[C@@H]1N(C)CCOC(c1ccc(C(F)(F)F)cc1)c1ccc(C(F)(F)F)cc1 | 417 | 652 | 1470 | 508 | 
CCOC(=O)[C@H]1CCCC[C@H]1N(C)CCOC(c1ccc(C(F)(F)F)cc1)c1ccc(C(F)(F)F)cc1 | 325 | 511 | 1210 | 425 | 
CNCCC=C(c1sccc1C)c1sccc1C | 179 | 137 | 254 | 160 | 
CNCCON=C(c1ccccc1)c1ccccc1 | 430 | 1050 | 829 | > 2000 | 
CNCCOC(c1ccc(C(F)(F)F)cc1)c1ccc(C(F)(F)F)cc1 | 190 | 58 | 143 | 163 | 
Cc1ccsc1C(=CCCNCCC(=O)O)c1sccc1C | 504 | 796 | 1730 | 171 | 
O=C(O)CCNCCON=C(c1ccccc1)c1ccccc1 | > 1000 | 290 | 310 | 6.99 | 
O=C(O)CCNCCC=C1c2ccccc2CCc2ccccc21 | 1380 | 3250 | 4060 | 281 | 
Cc1ccsc1C(=CCCN(C)CCC(=O)O)c1sccc1C | 937 | 343 | 1280 | 966 | 
CN(CCON=C(c1ccccc1)c1ccccc1)CCC(=O)O | 7520 | 674 | 768 | 9.7 | 
CN(CCC=C1c2ccccc2CCc2ccccc21)CCC(=O)O | 735 | 1050 | 1700 | 77.7 | 
